For assay [1], the system named is wild-type C. albicans strain (SC5314). In words: Antifungal susceptibility testing (dose-response growth, OD600). The assay is classed as cell-based, Candida albicans. Conditions: for MIC50: Candida albicans. Here is the method:
A wild-type C. albicans strain (SC5314) was seeded at 1 × 10^4 cells/ml into YNB medium without folate or PABA with the indicated supplements and increasing concentrations of MTX. After 48 h of incubation at 30°C, growth was quantified as the OD600 value and expressed as a percentage of the value for the DMSO-treated control. The values presented here are the average of two replicates and are representative of two independent experiments.
Approximately 1 × 10^4 cells/ml of a wild-type C. albicans strain was seeded into a 96-well plate with increasing concentrations of MTX in YNB pH 5, YNB pH 7, and RPMI pH 7 media. After 48 h, the OD600 was measured and expressed as a percentage of the value for the DMSO-treated control. The results presented here are the averages of two replicates and are representative of two independent experiments.
Stock solutions of MTX were prepared at 10 mM in dimethyl sulfoxide (DMSO) and diluted as needed in the same solvent. […] The final concentration of DMSO was 0.5% for all treatments. Plates were then incubated at 30°C before growth was quantified after 24 and 48 h by measuring the OD600 using a Cytation 5 plate reader (Bio-Tek Instruments, Inc.). MIC50 values were identified visually using the CLSI antifungal susceptibility assay and then confirmed by quantifying growth by the OD600 value. The growth of each strain at each drug concentration was then expressed relative to that of the DMSO-alone control. The susceptibility to MTX at the highest concentration at each pH was compared to that of the other pH values using a two-tailed Student's t test.

Assay [2] concerns C. albicans cdr1Δ/Δ, tac1Δ/Δ and mdr1Δ/Δ mutants. The assay is described as follows: Antifungal susceptibility testing of efflux pump mutants. Conditions: for MIC50: Candida albicans. Type of assay: cell-based, Candida albicans. The method, then: C. albicans cdr1Δ/Δ (A), tac1Δ/Δ (B), or mdr1Δ/Δ (C) strains, or that overexpress CDR1 (A), TAC1 (B), or MDR1 (C) from the PTEF1 promoter, were subcultured to approximately 1 × 10^4 cells/ml into YNB medium at pH 5 or pH 7 supplemented with a range of MTX concentrations. After 48 h at 30°C, growth was quantified as the OD600 value and expressed as a percentage of the value for the untreated wells. The values presented here are the average of two replicates and are representative of two independent experiments. WT, wild type.
(§1) Stock solutions of MTX were prepared at 10 mM in dimethyl sulfoxide (DMSO) and diluted as needed in the same solvent. Each C. albicans strain was grown overnight in YPD medium at 30°C and diluted to approximately 1 × 10^4 cells/ml in YNB medium or RPMI 1640 medium, and 100 μl of each cell suspension was transferred to the wells of a round-bottom 96-well plate. An additional 100 μl of YNB or RPMI 1640 medium containing 2× the final desired concentration of MTX was then added to each well. The final concentration of DMSO was 0.5% for all treatments. Plates were then incubated at 30°C before growth was quantified after 24 and 48 h by measuring the OD600 using a Cytation 5 plate reader (Bio-Tek Instruments, Inc.). MIC50 values were identified visually using the CLSI antifungal susceptibility assay and then confirmed by quantifying growth by the OD600 value. The growth of each strain at each drug concentration was then expressed relative to that of the DMSO-alone control. The susceptibility to MTX at the highest concentration at each pH was compared to that of the other pH values using a two-tailed Student's t test.

The test system of a further assay is Candida glabrata. In words: Antifungal susceptibility testing, other species. Particulars: YNB medium at pH 5 and pH 7. The assay is classed as cell-based. Here is the method:
(§2) Strains of C. albicans (A), C. glabrata (B), C. tropicalis (C), and C. parapsilosis (D) were seeded into YNB medium buffered at pH 5 or pH 7 at approximately 1 × 10^4 cells/ml in the presence of a range of MTX concentrations. After 48 h at 30°C, growth was quantified as the OD600 and expressed as a percentage of the value for the untreated controls. The values presented here are the average of two replicates and are representative of two experiments. The susceptibility to MTX at the highest concentration at each pH was compared to that of the other pH values using a two-tailed Student's t test (*, P < 0.01; **, P < 0.0001).
as §1

Another assay deals with Candida parapsilosis. In words: Antifungal susceptibility testing, other species. The assay is classed as cell-based. Conditions: YNB medium at pH 5 and pH 7. The method, then:
as §2, §1

The subject of another assay is Candida tropicalis. In words: Antifungal susceptibility testing, other species. The assay is classed as cell-based. Particulars: YNB medium at pH 5 and pH 7. Here is the method:
as §2, §1

Molecules are shown by their SMILES. Converted amounts (≈) assume the structure as drawn. Bounds are passed on as bounds.

Regarding `CN(Cc1cnc2nc(N)nc(N)c2n1)c1ccc(C(=O)N[C@@H](CCC(=O)O)C(=O)O)cc1` [Methotrexate, methotrexate], the MIC50 was 0.078 µM (≈ 0.0354 µg/mL) in assay [1] (SC5314, YNB medium with additional supplements of folic acid (up to 25 μM)); about 5 µM (≈ 2.27 µg/mL) in assay [1] (SC5314, YNB with addition of 250 μM folinic acid); about 0.78 µM (≈ 0.354 µg/mL) in assay [1] (SC5314, pH 5, YNB pH 5 medium); over 50 µM in assay [1] (SC5314, pH 7, RPMI 1640 pH 7 medium); over 50 µM in assay [1] (SC5314, pH 7, YNB pH 7 medium); about 0.78 µM (≈ 0.354 µg/mL) in assay [1] (SC5314, unbuffered standard YNB medium). The results for the MIC50 in assay [2] (pH 5) and in assay [2] (pH 7) were 0.39 µM (≈ 0.177 µg/mL) and over 6.25 µM, respectively. Also, the “effect of 1 μM DHF, THF or 5MTHF supplement on MTX-mediated growth inhibition” value in assay [1] (YNB medium) is “had no effect”. Moreover, the “drop of MIC50 with folic acid supplements” value in assay [1] (versus standard YNB medium) was about 10 fold. In assay [2] (YNB medium at pH 5 or 7), the “susceptibility of mdr1Δ/Δ mutant versus MDR1+ control strains” value was “not significantly different”. Moreover, the “growth inhibition (in words)” value was “insensitive at either pH” with Candida glabrata; “modest and pH-dependent growth inhibition” in the assay with Candida parapsilosis; “modest and pH-dependent growth inhibition” in the assay on Candida tropicalis.

The values above are taken from publication PMC7316490, “Dihydrofolate Reductase Is a Valid Target for Antifungal Development in the Human Pathogen Candida albicans” (mSphere, 2020).
